Results reported in US5441983A, “Treatment of infection by enveloped virus with calix(N)arene compounds” (Genelabs Incorporated, priority 1992, dated 1995).
In brackets after ≈: the same amount, converted by molar mass.

Assays:
HSV-1 = experiment: Plaque reduction assay, HSV-1, Vero cells; type: cell-based, HSV-1 (Kos-1); conditions: plaque reduction, Vero cells; for IC50: Human alphaherpesvirus 1, Vero
Method: (§1) used in Table 3 were further tested for activity against HSV infection in
(§2) a plaque reduction assay, as detailed in Example 6. Here Vero cells, after
(§3) overnight incubation, were exposed to serial dilutions of KY compound,
(§4) from 0.625-10 μg/ml, and HSV-1 or HSV-2 virus for two hours. After
(§5) washing to remove drug and extracellular virus, the cells were further
(§6) incubated for 2 days, then stained and counted for plaque formation.
(§7) Percent inhibition was determined by dividing plaques produced by total
(§8) number of plaques in infected, untreated controls. From the concentration
(§9) effect curve of plaque inhibition (expressed as percent of control), the
(§10) concentration of compound required to produce 50% plaque reduction,
(§11) IC50, was determined. The IC50 values for infection by HSV-1 and
(§12) HSV-2 infection is given in the right-hand columns in Table 3. With

RSV = experiment: Inhibition of RSV cytopathic effect in HEp2 cells; type: cell-based; conditions: human respiratory syncytial virus, HEp-2; HEp2 cells, cytopathic effect; read-out: ED50 RSV
HSV-2 = experiment: Plaque reduction assay, HSV-2, Vero cells; type: cell-based, HSV-2 (333); conditions: for IC50: Human alphaherpesvirus 2, Vero
Method: as §1, §2, §3, §4, §5, §6, §7, §8, §9, §10, §11, §12

HSV-1 or HSV-2 = experiment: Inhibition of HSV cytopathic effect (CPE) in Vero cells; conditions: 10-20 μg/ml
Method: In the method reported in Example 5, Vero cells were infected with HSV-1 or HSV-2 and allowed to grow in culture until cytopathic effects were clearly visible. In the absence of infection, the cells form an even monolayer of fibro-blastlike cells. With HSV infection, a cytopathic effect characterized by round cells in suspension is clearly evident after 24 hours, followed by clumping and lysis of infected cells after 24-72 hours.
In the drug inhibition study reported in Example 5, cells were exposed to HSV-1 or HSV-2 virus and, at the same time, to a selected aryl macrocyclic compound, at a final drug concentration of 10 μg/ml. Twenty-four hours later the cells were examined for cytopathic effect.
Vero cells were maintained in RPMI-1640 medium supplemented with 5% fetal calf serum, 100 Units of penicillin per ml and 100 μg of streptomycin per ml at 37° C. in a humidified incubator containing 7% CO2. The HSV strains HSV-1 (Kos-1) and HSV-2 (333) were used.
1×10^5 Vero cells were plated in each well of a 96 well microtitre plate in 0.2 ml RPMI-1640 medium containing 5% FCS and 0.1% methyl cellulose (15 cps). After overnight incubation, and cell doubling, the medium was aspirated and replaced with 100 .1 of the same medium containing 2% FCS, and 50.1 control or drug solution to a final drug concentration of 10 μg/ml and 50 μl virus, containing about 3 PFU/cell, i.e., 6 x 10^s PFU/well, of HSV-1 or HSV-2.
The cells were cultured for 24 hours at 37° C. at which time cytopathic effects are clearly visible. In the absence of viral infection, the cells form an even monolayer of fibroblast cells. With viral infection, the cells form a suspension of round cells, followed by cell clumping, whose appearance is easily distinguishable from normal fibroblast cells. If no detectable cytopathic effect was produced, the test was repeated with 10 μg/ml. A parallel set of cells without virus inoculation were done as a control for cytotoxicity to Vero cells.

HIV-HXB = experiment: Inhibition of syncytia formation, HIV-HXB (HTLV-IIIB); conditions: for EC100: Human immunodeficiency virus 1, 18 h, read-out: HIV-HXB ED100, complete inhibition of syncytia formation
Method: (§13) Briefly, cells chronically infected with HTLV-IIIB or RF-II HIV strains were incubated in the presence of serial dilutions of the selected KY compound, then further cocultured with indicator cells. The extent of syncytia formation was scored under phase microscopy.
(§14) Representative calix(n)arene compounds from Table 2 were tested for inhibition of cytopathic effects in cells infected with one of two HTLV-III strains, HTLV-IIIB and RF-II strains, as described in Example 12, and in the subsection above.
(§15) Human CD4^+ indicator cells (VB) and chronically infected H9 cells were maintained in RPMI-1640 medium supplemented with 5% fetal calf serum, 100 Units of penicillin per ml and 100 μg of streptomycin per ml at 37° C. in a humidified incubator containing 7% CO2.
(§16) For the fusion assay, serial dilutions between 1:2 and 1:2^8 of a selected KY compound, 1 mg/ml in PBS were made in a 96 well round bottom plate. The diluted KY compound was transferred to a 96 well flat-bottom plate. To each well was added 25 μg chronically infected H9 cells (at 2×10^6, cells/ml), or cells chronically infected with RF-II strain HIV, followed by incubation at 37° C. for 45 minutes. To each well was then added 25 μl VB cells (about 5×10^4 cells), and the cells and virus isolates were cocultured for 18 hours in a humid 5% CO2 atmosphere.

Influenza A (Taiwan) = experiment: Inhibition of influenza A cytopathic effect (clumping) in MDCK cells; type: cell-based, Influenza A virus (A/Taiwan strain); conditions: Influenza A virus, 24 h, 50% reduction in percent clumped cells, read-out: ED50 Influenza A (Taiwan)
Method: With virus infection, a cytopathic effect characterized by cell clumping is observed. For each compound tested, drug concentrations of 0.1, 1, 10, 25, and 100 μg/ml were added to cultured cells at the time of virus infection, as detailed in Examples 9 and 11. […] The inhibition of clumping was plotted as a function of drug concentration, to determine the dose effective to produce a 50% reduction in the percent clumped cells, measured with respect to control (no drug treatment).
Assays to assess the antiviral activity of KY- and Y-compounds in tissue culture were performed in 96-well flat-bottom tissue culture plates (Falcon 307), using conditions similar to those used in the cytotoxicity assays described above. In these assays, compound was tested in quadruplicate by serially diluting the compound in 2% FCS-MEM using serial two-fold dilutions (0.05 ml/well). A 0.05 ml volume of the appropriate virus containing approximately 100 median tissue culture infectious doses (TCID50) was then added to all wells except those set aside as antiviral and tissue control wells. Next, approximately 3×10^3 HEp2 cells (0.1 ml) were added to each well. Control wells containing antiviral and no virus (antiviral control), containing virus but no antiviral (virus control), or containing medium without virus or antiviral (tissue control), were included in each test. The challenge virus was then back titrated. All assay plates were incubated at 35° C. for 5 to 7 days in a 5% CO2 incubator.
The anti-influenza A activity of KY compounds was evaluated as described in Example 9, except that MDCK cells (kidney cell line) was used for infection in vitro by influenza virus (strain A/Taiwan).

HIV-RF-II = experiment: Inhibition of syncytia formation, HIV-RF-II; conditions: for EC100: Human immunodeficiency virus 1, 18 h, read-out: HIV-RF-II ED100, complete inhibition of syncytia formation
Method: as §13, §14, §15, §16

HSV-2 333 = experiment: Inhibition of viral yield, wild type HSV-2 333; conditions: Human alphaherpesvirus 2, HeLa, read-out: ID90
Method: (§17) These compounds tested were the nucleoside analogs acyclovir (ACV), ganciclovir (DHPG), phosphonoformate (PFA), and phosphomethoxyethyladenine (PMEA). Inhibition of viral yield was determined, as above, by infecting Hela cells in the presence of wild type or drug-resistant strains of HSV-1 or HSV-2, and serial dilutions of a selected anti-viral compound, and infecting Vero cells with serial dilutions of the Hela cell lysate, as above.
(§18) The KOS (HSV-1) and 333 (HSV-2) are wild type viruses; the KOS(PMEA)' and KOS(PFA)' are drug-resistant HSV-1 strains having a DNA polymerase mutation. The 333(DHPG) strain is a drug-resistantHSV-2 strain having a thymidine kinase mutation.
(§19) The following strains of HSV-1 and HSV-2 virus were used: KOS, a wild type HSV-1 virus; KOS (PMEA) and KOS (PFA), both drug-resistant HSV-1 viruses having a DNA polymerase mutation; 333, a wild type HSV-2 HSV-2 virus, and 333 (DHPG), a drug-resistant HSV-2 virus having a thymidine kinase mutation.
(§20) After growth at 37° C. for 24 hours in 2 ml of RPMI-1640 containing 2% FCS and penicillin and streptomycin (P/S), the cells were frozen at -70° C. until the time for titration. The cells were freeze/thawed 3 times to release virus from the cells, serially diluted 10 fold, and the serial dilutions were added to Vero cells in culture. After 2 hours incubation at 37° C. the virus was removed and 0.5 ml methycellulose (4K cps) in RPMI-1640 and 2% FCS+P/S was added. Two days later, the medium was removed. The cells were stained in 0.8% crystal violet in 50% ethanol. The plaques formed were counted and the titer was calculated from the fold of dilutions. From the drug dose response, the concentration of each drug required to effect a 90% inhibition of virus yield, the IC90 concentration was determined.

HSV-2 333 (DHPG)' = experiment: Inhibition of viral yield, drug-resistant HSV-2 333(DHPG)'; conditions: Human alphaherpesvirus 2, HeLa, read-out: ID90
Method: as §17, §18, §19, §20

HSV-1 KOS (PFA)' = experiment: Inhibition of viral yield, drug-resistant HSV-1 KOS(PFA)'; conditions: Human alphaherpesvirus 1, HeLa, read-out: ID90
Method: as §17, §18, §19, §20

HSV-1 KOS = experiment: Inhibition of viral yield, wild type HSV-1 KOS; conditions: Human alphaherpesvirus 1, HeLa, read-out: ID90
Method: as §17, §18, §19, §20

HSV-1 KOS(PMEA)' = experiment: Inhibition of viral yield, drug-resistant HSV-1 KOS(PMEA)'; conditions: Human alphaherpesvirus 1, HeLa, read-out: ID90
Method: as §17, §18, §19, §20

[1] = complete inhibition of syncytia formation

Row | SMILES | IC50 (HSV-1) | IC50 (HSV-2) | protection from CPE, in words (HSV-1 or HSV-2) | EC100 (HIV-HXB) | EC100 (HIV-RF-II) | further results
1 | CC(=O)C1c2c(S(=O)(=O)O)cc3cc(S(=O)(=O)O)c(c(O)c3c2O)C(C(C)=O)c2c(S(=O)(=O)O)cc3cc(S(=O)(=O)O)c(c(O)c3c2O)C(C(C)=O)c2c(S(=O)(=O)O)cc3cc(S(=O)(=O)O)c(c(O)c3c2O)C(C(C)=O)c2c(S(=O)(=O)O)cc3cc(S(=O)(=O)O)c1c(O)c3c2O (stereo not shown) [KY-110] | > 10 µg/mL | > 10 µg/mL | low activity | 63 µg/mL |  | EC50 (RSV): 4 µg/mL (≈ 2.67 µM); EC50 (Influenza A (Taiwan)): > 250 µg/mL
2 | COc1c2c(S(=O)(=O)O)cc3cc(S(=O)(=O)O)c(c(OC)c13)CN(C)Cc1c(S(=O)(=O)O)cc3cc(S(=O)(=O)O)c(c(OC)c3c1OC)CN(C)Cc1c(S(=O)(=O)O)cc3cc(S(=O)(=O)O)c(c(OC)c3c1OC)CN(C)Cc1c(S(=O)(=O)O)cc3cc(S(=O)(=O)O)c(c(OC)c3c1OC)CN(C)C2 [KY-395] |  |  | low activity |  |  | 
3 | O=S(=O)(NO)c1cc2cc(S(=O)(=O)NO)c3c(O)c2c(O)c1Cc1c(S(=O)(=O)NO)cc2cc(S(=O)(=O)NO)c(c(O)c2c1O)Cc1c(S(=O)(=O)NO)cc2cc(S(=O)(=O)NO)c(c(O)c2c1O)Cc1c(S(=O)(=O)NO)cc2cc(S(=O)(=O)NO)c(c(O)c2c1O)C3 [KY-359] | 5.75 µg/mL (≈ 3.97 µM) | 4.2 µg/mL (≈ 2.9 µM) |  | 32 µg/mL | 63 µg/mL | 
4 | CS(=O)(=O)c1cc2cc(S(C)(=O)=O)c3c(O)c2c(O)c1Cc1c(S(C)(=O)=O)cc2cc(S(C)(=O)=O)c(c(O)c2c1O)Cc1c(S(C)(=O)=O)cc2cc(S(C)(=O)=O)c(c(O)c2c1O)Cc1c(S(C)(=O)=O)cc2cc(S(C)(=O)=O)c(c(O)c2c1O)C3 [KY-158] | > 10 µg/mL | > 10 µg/mL | low activity | 500 µg/mL | 7500 µg/mL | 
5 | CCNS(=O)(=O)c1cc2cc(S(=O)(=O)NCC)c3c(O)c2c(O)c1Cc1c(S(=O)(=O)NCC)cc2cc(S(=O)(=O)NCC)c(c(O)c2c1O)Cc1c(S(=O)(=O)NCC)cc2cc(S(=O)(=O)NCC)c(c(O)c2c1O)Cc1c(S(=O)(=O)NCC)cc2cc(S(=O)(=O)NCC)c(c(O)c2c1O)C3 [KY-148] |  |  | low activity | 250 µg/mL |  | 
6 | O=S(=O)(O)c1cc2cc(S(=O)(=O)O)c3c(O)c2c(O)c1C(C(O)CO)c1c(S(=O)(=O)O)cc2cc(S(=O)(=O)O)c(c(O)c2c1O)C(C(O)CO)c1c(S(=O)(=O)O)cc2cc(S(=O)(=O)O)c(c(O)c2c1O)C(C(O)CO)c1c(S(=O)(=O)O)cc2cc(S(=O)(=O)O)c(c(O)c2c1O)C3C(O)CO (stereo not shown) [KY-48] |  |  | low activity | 250 µg/mL |  | 
7 | Nc1nc(O)c2ncn(COC(CO)CO)c2n1 [DHPG, ganciclovir] |  |  |  |  |  | IC90 (HSV-2 333): 2 µM; IC90 (HSV-2 333 (DHPG)'): 215 µM; IC90 (HSV-1 KOS (PFA)'): 1 µM; IC90 (HSV-1 KOS): 2 µM
8 | COc1c2c(S(=O)(=O)O)cc3cc(S(=O)(=O)O)c(c(OC)c13)Cc1c(S(=O)(=O)O)cc3cc(S(=O)(=O)O)c(c(OC)c3c1OC)Cc1c(S(=O)(=O)O)cc3cc(S(=O)(=O)O)c(c(OC)c3c1OC)Cc1c(S(=O)(=O)O)cc3cc(S(=O)(=O)O)c(c(OC)c3c1OC)C2 [KY-280] |  |  |  |  |  | HSV-1 IC50 (HSV-1): 1.1 µg/mL; HSV-2 IC50 (HSV-2): 1 µg/mL; HIV-HXB ED100 (HIV-HXB; [1]): 16; HIV-RF-II ED100 (HIV-RF-II; [1]): 32
9 | Nc1ncnc2c1ncn2CCOCP(=O)(O)O [PMEA, phosphomethoxyethyladenine] |  |  |  |  |  | IC90 (HSV-2 333): 155 µM; IC90 (HSV-2 333 (DHPG)'): 120 µM; IC90 (HSV-1 KOS (PFA)'): > 1000 µM; IC90 (HSV-1 KOS): 100 µM; IC90 (HSV-1 KOS(PMEA)'): > 2000 µM
10 | COS(=O)(=O)c1cc2cc(S(=O)(=O)OC)c3c(O)c2c(O)c1Cc1c(S(=O)(=O)OC)cc2cc(S(=O)(=O)OC)c(c(O)c2c1O)Cc1c(S(=O)(=O)OC)cc2cc(S(=O)(=O)OC)c(c(O)c2c1O)Cc1c(S(=O)(=O)OC)cc2cc(S(=O)(=O)OC)c(c(O)c2c1O)C3 [KY-175] | > 10 µg/mL | > 10 µg/mL | low activity | 63 µg/mL | 250 µg/mL | 
11 | O=S(=O)(O)c1c2c(O)c3c(O)c(c(S(=O)(=O)O)c(Br)c3c1Br)Cc1c(S(=O)(=O)O)c(Br)c3c(Br)c(S(=O)(=O)O)c(c(O)c3c1O)Cc1c(S(=O)(=O)O)c(Br)c3c(Br)c(S(=O)(=O)O)c(c(O)c3c1O)Cc1c(S(=O)(=O)O)c(Br)c3c(Br)c(S(=O)(=O)O)c(c(O)c3c1O)C2 [KY-194] | 1 µg/mL (≈ 0.51 µM) | 1 µg/mL (≈ 0.51 µM) |  | 63 µg/mL | 125 µg/mL | EC50 (RSV): 0.5 µg/mL (≈ 0.255 µM); EC50 (Influenza A (Taiwan)): 7.9 µg/mL (≈ 4.03 µM)
12 | O=S(O)c1cc2cc(S(=O)O)c3c(O)c2c(O)c1Cc1c(S(=O)O)cc2cc(S(=O)O)c(c(O)c2c1O)Cc1c(S(=O)O)cc2cc(S(=O)O)c(c(O)c2c1O)Cc1c(S(=O)O)cc2cc(S(=O)O)c(c(O)c2c1O)C3 [KY-123] | 1.5 µg/mL (≈ 1.25 µM) | 1.5 µg/mL (≈ 1.25 µM) |  | 16 µg/mL | 16 µg/mL | EC50 (RSV): 1 µg/mL (≈ 0.832 µM); EC50 (Influenza A (Taiwan)): 31.3 µg/mL (≈ 26.1 µM)
13 | CNS(=O)(=O)c1cc2cc(S(=O)(=O)NC)c3c(O)c2c(O)c1Cc1c(S(=O)(=O)NC)cc2cc(S(=O)(=O)NC)c(c(O)c2c1O)Cc1c(S(=O)(=O)NC)cc2cc(S(=O)(=O)NC)c(c(O)c2c1O)Cc1c(S(=O)(=O)NC)cc2cc(S(=O)(=O)NC)c(c(O)c2c1O)C3 [KY-147] | > 10 µg/mL | > 10 µg/mL | low activity | 250 µg/mL | 250 µg/mL | 
14 | O=C(O)P(=O)(O)O [PFA, phosphonoformate] |  |  |  |  |  | IC90 (HSV-2 333): 150 µM; IC90 (HSV-1 KOS (PFA)'): > 1000 µM; IC90 (HSV-1 KOS): 180 µM; IC90 (HSV-1 KOS(PMEA)'): 3000 µM
15 | C=CC1c2c(S(=O)(=O)O)cc3cc(S(=O)(=O)O)c(c(O)c3c2O)C(C=C)c2c(S(=O)(=O)O)cc3cc(S(=O)(=O)O)c(c(O)c3c2O)C(C=C)c2c(S(=O)(=O)O)cc3cc(S(=O)(=O)O)c(c(O)c3c2O)C(C=C)c2c(S(=O)(=O)O)cc3cc(S(=O)(=O)O)c1c(O)c3c2O (stereo not shown) [KY-97] | > 10 µg/mL | > 10 µg/mL |  | 32 µg/mL |  | EC50 (RSV): 0.5 µg/mL (≈ 0.349 µM); EC50 (Influenza A (Taiwan)): 5 µg/mL (≈ 3.49 µM)
